SMILES	melting point
Cc1c(-c2cnco2)[nH]c(=O)c2c1ccc1nc(Nc3c(Cl)cccc3Cl)n(C)c12 [Example 20, 2-(2,6-Dichlorophenylamino)-1,6-dimethyl-7-oxazol-5-yl-1,8-dihydro-imidazo[4,5-h]isoquinolin-9-one]	> 300 °C
Cc1[nH]c(=O)c2c(ccc3nc(Nc4c(Cl)cccc4Cl)n(C)c32)c1CCN1CCOCC1 [Example 8, 2-(2,6-Dichlorophenylamino)-1,7-dimethyl-6-(2-morpholin-4-yl-ethyl)-1,8-dihydro-imidazo[4,5-h]isoquinoline-9-one]	285 to 290 °C
Cc1c(-c2cncn2C)[nH]c(=O)c2c1ccc1nc(Nc3c(Cl)cccc3Cl)n(C)c12 [Example 21, 2-(2,6-Dichlorophenylamino)-1,6-dimethyl-7-(3-methyl-3H-imidazol-4-yl)-1,8-dihydro-imidazo[4,5-h]isoquinolin-9-one]	> 300 °C
C=Cc1[nH]c(=O)c2c(ccc3nc(Nc4c(Cl)cccc4Cl)n(C)c32)c1C [Example 15, 2-(2,6-Dichlorophenylamino)-1,6-dimethyl-7-vinyl-1,8-dihydro-imidazo[4,5-h]isoquinoline-9-one]	> 300 °C
Cc1[nH]c(=O)c2c(ccc3nc(Nc4c(Cl)cccc4Cl)n(C)c32)c1CCO [Example 10, 2-(2,6-Dichlorophenylamino)-1,7-dimethyl-6-(2-hydroxyethyl)-1,8-dihydro-imidazo[4,5-h]isoquinoline-9-one]	> 300 °C
CCOC(=O)Cc1c(C)[nH]c(=O)c2c1ccc1nc(Nc3c(Cl)cccc3Cl)n(C)c12 [Example 9, 2-(2,6-Dichlorophenylamino)-1,7-dimethyl-9-oxo-1,8-dihydro-imidazo[4,5-h]isoquinolin-6-yl acetic acid ethyl ester]	280 to 285 °C (dec.)
Cc1c(/C=C/CN2CCOCC2)[nH]c(=O)c2c1ccc1nc(Nc3c(Cl)cccc3Cl)n(C)c12 [Example 18, 2-(2,6-Dichlorophenylamino)-1,6-dimethyl-7-(3-morpholin-4-yl-propen-1-yl)-1,8-dihydro-imidazo[4,5-h]-isoquinolin-9-one]	175 to 177 °C
Cc1c(CNCc2ccccc2)[nH]c(=O)c2c1ccc1nc(Nc3c(Cl)cccc3Cl)n(C)c12 [Example 19, 7-Benzylaminomethyl-2-(2,6-dichlorophenylamino)-1,6-dimethyl-1,8-dihydro-imidazo[4,5-h]-isoquinolin-9-one]	231 to 234 °C
O=c1[nH]c2ccccc2c2ccc3nc(Nc4c(Cl)cccc4Cl)[nH]c3c12 [Example 26, 2-(2,6-Dichlorophenylamino)-3,5-dihydro-imidazo[4,5-i]phenanthridin-4-one]	> 300 °C

Next, values leading:

melting point	SMILES
287 to 290 °C	CC1(C)CNC(=O)c2c1ccc1nc(Nc3c(Cl)cccc3Cl)[nH]c21 [Example 2, 2-(2,6-Dichlorophenylamino)-6,6-dimethyl-7,8-dihydro-1H,6H-imidazo[4,5-h]isoquinoline-9-one]
> 300 °C	CC1(C)C(=O)NC(=O)c2c1ccc1nc(Nc3c(Cl)cccc3Cl)sc21 [Example 5, 2-(2,6-Dichlorophenylamino)-6,6-dimethyl-6H-thiazolo[4,5-h]isoquinoline-7,9-dione]
290 to 292 °C	CC1(C)C(=O)NC(=O)c2c1ccc1nc(Nc3c(Cl)cccc3Cl)[nH]c21 [Example 1, 2-(2,6-Dichlorophenylamino)-6,6-dimethyl-1H,6H-imidazo[4,5-h]isoquinoline-7,9-dione]
> 300 °C	COC(=O)/C=C/c1[nH]c(=O)c2c(ccc3nc(Nc4c(Cl)cccc4Cl)n(C)c32)c1C [Example 12, 3-[2-(2,6-Dichlorophenylamino)-1,6-dimethyl-9-oxo-8,9-dihydro-1H-imidazo[4,5-h]isoquinolin-7-yl]-acrylic acid methyl ester]
> 300 °C	Cc1c(/C=C/CN)[nH]c(=O)c2c1ccc1nc(Nc3c(Cl)cccc3Cl)n(C)c12 [Example 28, 7-(3-Aminopropen-1-yl)-2-(2,6dichlorophenylamino)-1,6-dimethyl-1,8-dihydro-imidazo[4,5-h]-isoquinolin-9-one]
> 300 °C (dec.)	Cn1c(Nc2c(Cl)cccc2Cl)nc2ccc3c4c([nH]c(=O)c3c21)CCC4 [Example 27, 2-(2,6-Dichlorophenylamino)-3-methyl-5,6,7,8-tetrahydro-3H-1,3,5-triaza-dicyclopenta[a,f]naphthalen-4-one]
235 to 236 °C	C=CC(O)c1[nH]c(=O)c2c(ccc3nc(Nc4c(Cl)cccc4Cl)n(C)c32)c1C (stereo not shown) [Example 16, 2-(2,6-Dichlorophenylamino)-1,6-dimethyl-7-(1-hydroxyprop-2-en-1-yl)-1,8-dihydro-imidazo[4,5-h]isoquinolin-9-one]
> 300 °C	Cc1[nH]c(=O)c2c(ccc3nc(Nc4c(Cl)cccc4Cl)n(C)c32)c1CC(=O)N1CCOCC1 [Example 7, 2-(2,6-Dichlorophenylamino)-1,7-dimethyl-6-(2-morpholin-4-yl-2-oxoethyl)-1,8-dihydro-imidazo[4,5-h]isoquinoline-9-one]
298 to 300 °C	Cc1c(/C=C/CO)[nH]c(=O)c2c1ccc1nc(Nc3c(Cl)cccc3Cl)n(C)c12 [Example 14, 2-(2,6-Dichlorophenylamino)-1,6-dimethyl-7-(3-hydroxy-propen-1-yl)-1,8-dihydro-imidazo[4,5-h]isoquinolin-9-one]
> 300 °C	Cc1[nH]c(=O)c2c(ccc3nc(Nc4c(Cl)cccc4Cl)[nH]c32)c1C [Example 3a, 2-(2,6-Dichlorophenylamino)-6,7-dimethyl-1,8-dihydro-imidazo[4,5-h]isoquinoline-9-one]
